Key:
Experiment in all cases: relative viability (nuclei count vs DMSO), 5 days (fraction); higher = more cells survive
R406 + Luminespib = compound: COc1cc(Nc2ncc(F)c(Nc3ccc4c(n3)NC(=O)C(C)(C)O4)n2)cc(OC)c1OC [R406] + CCNC(=O)c1noc(-c2cc(C(C)C)c(O)cc2O)c1-c1ccc(CN2CCOCC2)cc1 [Luminespib] (partner 0.01 µM)
Outline: (§1)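 Five library-drug doses in √10 steps were combined with a fixed anchor-drug dose, or a single drug was given alone, by pin tool to lung cancer cell lines in 1536-well plates the day after seeding. Nuclei were stained and counted after 5 days. Relative viability is the nuclei count in treated wells over that in vehicle wells, taken as the median of duplicate plates.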

R406 + Crizotinib = compound: COc1cc(Nc2ncc(F)c(Nc3ccc4c(n3)NC(=O)C(C)(C)O4)n2)cc(OC)c1OC [R406] + C[C@@H](Oc1cc(-c2cnn(C3CCNCC3)c2)cnc1N)c1c(Cl)ccc(F)c1Cl [Crizotinib] (partner 1 µM)
Outline: as §1

R406 + Pemetrexed = compound: COc1cc(Nc2ncc(F)c(Nc3ccc4c(n3)NC(=O)C(C)(C)O4)n2)cc(OC)c1OC [R406] + Nc1nc2[nH]cc(CCc3ccc(C(=O)N[C@@H](CCC(=O)O)C(=O)O)cc3)c2c(=O)[nH]1 [Pemetrexed] (partner 0.2 µM)
Outline: as §1

Daporinad + OSI-027 = compound: O=C(/C=C/c1cccnc1)NCCCCC1CCN(C(=O)c2ccccc2)CC1 [Daporinad] + COc1cccc2cc(-c3nc([C@H]4CC[C@H](C(=O)O)CC4)n4ncnc(N)c34)[nH]c12 [OSI-027] (partner 0.5 µM)
Outline: as §1

Row | Cell Line | relative viability (R406 + Luminespib; first compound 0.08 µM) | relative viability (R406 + Luminespib; first compound 0.253 µM) | relative viability (R406 + Luminespib; first compound 0.8 µM) | relative viability (R406 + Luminespib; first compound 2.53 µM) | relative viability (R406 + Luminespib; first compound 8 µM) | relative viability (R406 + Crizotinib; first compound 0.253 µM) | relative viability (R406 + Crizotinib; first compound 0.8 µM) | relative viability (R406 + Crizotinib; first compound 2.53 µM) | relative viability (R406 + Crizotinib; first compound 8 µM) | relative viability (R406 + Pemetrexed; first compound 0.08 µM) | relative viability (R406 + Pemetrexed; first compound 0.253 µM) | relative viability (R406 + Pemetrexed; first compound 0.8 µM) | relative viability (R406 + Pemetrexed; first compound 2.53 µM) | relative viability (R406 + Pemetrexed; first compound 8 µM) | relative viability (Daporinad + OSI-027; first compound 0.0005 µM) | relative viability (Daporinad + OSI-027; first compound 0.001581 µM) | relative viability (Daporinad + OSI-027; first compound 0.005 µM) | relative viability (Daporinad + OSI-027; first compound 0.01581 µM) | relative viability (R406 + Crizotinib; first compound 0.08 µM)
1 | NCI-H661 | 0.887 | 0.956 | 0.827 | 0.977 | 0.862 | 1.01 | 1.02 | 0.882 | 1.14 | 0.943 | 0.92 | 0.86 | 0.767 | 0.685 | 0.811 | 0.719 | 0.74 | 0.341 | 
2 | PC-14 | 0.153 | 0.171 | 0.139 | 0.123 | 0.126 | 1.06 | 0.862 | 0.79 | 0.687 | 0.139 | 0.131 | 0.135 | 0.101 | 0.042 | 0.708 | 1.04 | 0.917 | 0.604 | 0.92
3 | COR-L 105 | 0.757 | 0.972 | 0.658 | 0.551 | 0.768 | 0.89 | 0.822 | 0.8 | 0.263 | 1.29 | 1.22 | 1.12 | 1.24 | 0.841 | 0.671 | 0.748 | 0.883 | 0.694 | 0.955
4 | NCI-H2405 | 0.651 | 0.954 | 0.766 | 0.26 | 0.241 | 0.989 | 0.861 | 0.78 | 0.638 | 1.14 | 1.22 | 1.08 | 0.495 | 0.224 | 0.698 | 0.645 | 0.724 | 0.626 | 0.769
5 | NCI-H1915 | 0.819 | 0.886 | 0.982 |  | 0.624 | 0.975 | 0.959 | 0.782 | 0.874 | 0.498 | 0.475 | 0.497 | 0.439 | 0.36 | 0.613 | 0.641 | 0.719 | 0.712 | 0.898
6 | CAL-12T | 0.57 | 0.516 | 0.52 | 0.124 | 0.138 | 0.746 | 0.731 | 0.503 | 0.121 | 1.22 | 1.15 | 1.17 | 0.918 | 1 | 0.65 | 0.541 | 0.719 | 0.33 | 0.693
7 | NCI-H441 | 0.399 | 0.373 | 0.432 | 0.277 | 0.209 | 0.975 | 0.846 | 0.599 | 0.461 | 0.219 | 0.261 | 0.263 | 0.257 | 0.234 | 0.552 | 0.856 | 0.805 | 0.671 | 0.72
8 | LXF-289 | 0.629 | 0.733 | 0.713 | 0.447 | 0.405 | 0.918 | 0.833 | 0.832 | 0.259 | 0.874 | 0.912 | 0.908 | 0.887 | 0.725 | 0.731 | 0.855 | 0.89 | 0.89 | 0.739
9 | NCI-H520 | 0.225 | 0.25 | 0.293 | 0.271 | 0.226 | 1.09 | 0.875 | 0.58 | 0.269 | 0.698 | 0.724 | 0.675 | 0.285 | 0.153 | 0.245 | 0.222 | 0.328 | 0.234 | 0.735
10 | NCI-H2009 | 1.05 | 1.09 | 1.04 | 0.884 | 0.993 | 1.02 | 1.13 | 0.815 | 0.301 | 0.969 | 1.09 | 1.05 | 0.979 | 0.946 | 0.599 | 0.739 | 0.614 | 0.381 | 1.07
11 | 201T | 1.08 | 1.06 | 1.07 | 1 | 0.655 | 1.06 | 1.03 | 1.05 | 0.974 | 0.322 | 0.359 | 0.322 | 0.309 | 0.294 | 0.745 | 0.612 | 0.794 | 0.795 | 0.994
12 | NCI-H23 | 0.217 | 0.251 | 0.228 | 0.181 | 0.168 | 0.607 | 0.571 | 0.439 | 0.285 | 0.565 | 0.806 | 0.782 | 0.17 | 0.248 | 0.544 | 0.472 | 0.637 | 0.545 | 0.458
13 | LOU-NH91 | 0.329 | 0.357 | 0.278 | 0.297 | 0.272 | 0.728 | 0.756 | 0.504 | 0.57 | 0.362 | 0.399 | 0.37 | 0.455 | 0.38 | 0.732 | 0.779 | 0.772 | 0.83 | 0.745
14 | NCI-H2085 | 0.437 | 0.353 | 0.525 | 0.319 | 0.279 | 0.974 | 0.785 | 0.887 | 0.566 | 0.89 | 0.902 | 0.867 | 0.64 | 0.589 | 0.695 | 0.773 | 0.817 | 0.852 | 0.841
15 | COR-L23 | 0.665 | 0.919 | 0.71 | 0.3 | 0.372 | 0.797 | 0.733 | 0.708 | 0.383 | 0.2 | 0.182 | 0.191 | 0.183 | 0.191 | 0.737 | 0.772 | 0.814 | 0.255 | 0.612
16 | BEN | 0.365 | 0.343 | 0.22 | 0.214 | 0.392 | 1.32 | 1.15 | 0.785 | 0.641 | 0.773 | 0.879 | 0.805 | 0.835 | 0.438 | 0.276 | 0.301 | 0.299 | 0.287 | 0.923
17 | ChaGo-K-1 | 0.613 | 0.548 | 0.652 | 0.404 | 0.473 | 0.936 | 1.23 | 1.01 | 0.702 | 0.25 | 0.25 | 0.248 | 0.253 | 0.233 | 0.673 | 0.597 | 0.636 | 0.471 | 1.1
18 | LK-2 | 0.187 | 0.198 | 0.169 | 0.163 | 0.197 | 0.224 | 0.178 | 0.255 | 0.259 | 0.192 | 0.326 | 0.38 | 0.191 | 0.126 | 0.225 | 0.241 | 0.18 | 0.192 | 0.275
19 | NCI-H322M | 0.791 | 0.827 | 0.855 | 0.306 | 0.35 | 1.06 | 0.978 | 0.611 | 0.438 | 0.532 | 0.596 | 0.63 | 0.466 | 0.396 | 0.526 | 0.617 | 0.613 | 0.52 | 0.811
20 | NCI-H596 | 0.817 | 1.2 | 1.27 | 0.55 | 0.132 | 1.1 | 1.09 | 0.796 | 0.245 | 0.527 | 0.554 | 0.428 | 0.392 | 0.324 | 0.553 | 0.674 | 0.758 | 0.656 | 0.837
21 | NCI-H1666 | 1.02 | 1.16 | 1.03 | 1.05 | 0.64 | 1.3 | 0.973 | 0.849 | 0.461 | 0.825 | 1.05 | 0.86 | 0.718 | 0.674 | 0.822 | 0.989 | 0.826 | 0.896 | 0.92
22 | NCI-H1993 | 0.78 | 1.11 | 0.988 | 0.359 | 0.577 | 0.866 | 0.809 | 0.75 | 0.661 | 0.618 | 0.5 | 0.678 | 0.578 | 0.464 | 0.618 | 0.508 | 0.55 | 0.542 | 0.933
23 | NCI-H1975 | 0.25 | 0.227 | 0.187 | 0.143 | 0.116 | 1.13 | 0.977 | 0.46 | 0.221 | 0.29 | 0.322 | 0.272 | 0.261 | 0.175 | 0.753 | 0.738 | 0.8 | 0.672 | 0.949
24 | HCC-44 | 0.975 | 0.911 | 1.2 | 0.458 | 0.274 | 0.963 | 0.806 | 0.721 | 0.341 | 0.585 | 0.621 | 0.603 | 0.601 | 0.726 | 0.481 | 0.608 | 0.462 | 0.639 | 0.771

Reference: the supplement of paper PMC10307832
